Molecular target: T1, NMDA receptor GRIN1/GRIN2B (NR2B) expressed in HEK293 cells (Homo sapiens, UniProt Q13224)
T1 construct: host or cells: HEK293
Assay: Reversal of Ro 25-6981-mediated suppression of the Ca2+ response (fluo-8 fluorescence, FDSS) in HEK293 cells expressing GRIN1 and GRIN2B
Assay type: cell-based
Conditions: % reversal=100*(R−Rneg)/(Rpos−Rneg) of Ro 25-6981 suppression of co-agonist (glutamate/glycine) Ca2+ response, 10 min pre-incubation, compound concentration not given
Summary of the method: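 HEK293 with stable GRIN1 and tetracycline-induced GRIN2B, loaded with fluo-8 and preincubated 10 min with compound plus Ro 25-6981 and 5,7-dichlorokynurenic acid. Ca2+ response recorded 2 min after glutamate/glycine/CaCl2 co-agonist addition. % reversal = 100*(R−Rneg)/(Rpos−Rneg) from end fluorescence ratios.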

T1 sequence (Q13224 27-1484, other chains not shown): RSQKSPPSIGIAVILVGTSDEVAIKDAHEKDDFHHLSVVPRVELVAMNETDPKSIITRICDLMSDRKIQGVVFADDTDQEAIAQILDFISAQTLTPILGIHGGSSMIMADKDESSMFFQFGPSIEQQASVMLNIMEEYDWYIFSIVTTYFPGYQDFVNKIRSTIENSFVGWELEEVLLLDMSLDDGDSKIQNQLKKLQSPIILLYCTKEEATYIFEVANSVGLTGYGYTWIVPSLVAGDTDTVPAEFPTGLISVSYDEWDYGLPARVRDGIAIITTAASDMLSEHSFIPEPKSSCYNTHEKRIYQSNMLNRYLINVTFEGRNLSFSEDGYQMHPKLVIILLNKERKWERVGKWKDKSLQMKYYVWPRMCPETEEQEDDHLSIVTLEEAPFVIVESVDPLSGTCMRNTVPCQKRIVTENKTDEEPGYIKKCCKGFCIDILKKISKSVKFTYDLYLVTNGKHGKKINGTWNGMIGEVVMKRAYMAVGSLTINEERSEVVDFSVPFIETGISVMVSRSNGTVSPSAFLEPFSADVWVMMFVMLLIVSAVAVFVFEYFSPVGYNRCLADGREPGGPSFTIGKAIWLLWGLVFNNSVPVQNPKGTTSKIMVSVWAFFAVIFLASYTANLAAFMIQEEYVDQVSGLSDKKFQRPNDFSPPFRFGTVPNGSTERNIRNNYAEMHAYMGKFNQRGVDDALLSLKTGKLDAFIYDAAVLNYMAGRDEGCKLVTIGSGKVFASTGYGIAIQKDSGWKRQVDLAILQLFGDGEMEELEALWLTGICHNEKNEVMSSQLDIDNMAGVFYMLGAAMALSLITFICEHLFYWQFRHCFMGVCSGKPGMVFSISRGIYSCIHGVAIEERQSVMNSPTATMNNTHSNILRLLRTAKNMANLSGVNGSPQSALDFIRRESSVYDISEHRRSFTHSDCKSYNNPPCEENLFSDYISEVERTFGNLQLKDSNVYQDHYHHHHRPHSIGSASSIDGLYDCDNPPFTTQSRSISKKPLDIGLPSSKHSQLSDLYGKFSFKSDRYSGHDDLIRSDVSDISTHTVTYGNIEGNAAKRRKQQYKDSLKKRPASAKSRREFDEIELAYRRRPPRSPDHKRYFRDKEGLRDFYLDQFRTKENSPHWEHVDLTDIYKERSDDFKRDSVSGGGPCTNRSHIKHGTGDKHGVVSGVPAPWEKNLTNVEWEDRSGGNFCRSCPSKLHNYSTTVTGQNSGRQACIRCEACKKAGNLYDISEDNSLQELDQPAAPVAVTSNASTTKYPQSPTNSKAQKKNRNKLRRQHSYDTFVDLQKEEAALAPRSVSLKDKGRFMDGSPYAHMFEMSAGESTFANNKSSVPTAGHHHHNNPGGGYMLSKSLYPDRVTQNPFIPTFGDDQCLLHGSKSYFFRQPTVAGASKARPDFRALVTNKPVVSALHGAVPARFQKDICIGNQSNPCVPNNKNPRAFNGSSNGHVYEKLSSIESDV

| SMILES | Response Recovered (%) |
| --- | --- |
| O=C(On1cnc2scc(-c3ccc(Cl)c(F)c3)c2c1=O)N1CCCC1 [Example 87, 5-(4-chloro-3-fluorophenyl)-4-oxo-3H,4H-thieno[2,3-d]pyrimidin-3-yl pyrrolidine-1-carboxylate] | 32 |
| O=C(On1cnc2scc(-c3ccc(F)c(Cl)c3)c2c1=O)N1CCC(F)C1 (stereo not shown) [Example 88, 5-(3-chloro-4-fluorophenyl)-4-oxo-3H,4H-thieno[2,3-d]pyrimidin-3-yl 3-fluoropyrrolidine-1-carboxylate] | 83 |
| O=C(Nn1cnc2scc(-c3ccc(Cl)c(C(F)(F)F)c3)c2c1=O)N1CCCC1 [Example 89, N-(5-(4-chloro-3-(trifluoromethyl)phenyl)-4-oxothieno[2,3-d]pyrimidin-3(4H)-yl)pyrrolidine-1-carboxamide] | 29 |
| O=C(Nn1cnc2scc(-c3ccc(F)c(Cl)c3)c2c1=O)N1CCCC1 [Example 90] | 10 |
| O=C(CNn1cnc2scc(-c3ccc(Cl)c(C(F)(F)F)c3)c2c1=O)N1CCCC1 [Example 91, 5-(4-chloro-3-(trifluoromethyl)phenyl)-3-((2-oxo-2-(pyrrolidin-1-yl)ethyl)amino)thieno[2,3-d]pyrimidin-4(3H)-one] | 2 |
| O=C(COn1cnc2scc(-c3ccc(Cl)c(C(F)(F)F)c3)c2c1=O)N1CCCC1 [Example 92, 5-(4-chloro-3-(trifluoromethyl)phenyl)-3-(2-oxo-2-(pyrrolidin-1-yl)ethoxy)thieno[2,3-d]pyrimidin-4(3H)-one] | 37 |
| O=C(COn1cnc2scc(-c3ccc(F)c(Cl)c3)c2c1=O)N1CCCC1 [Example 93, 5-(3-chloro-4-fluorophenyl)-3-[2-oxo-2-(pyrrolidin-1-yl)ethoxy]-3H,4H-thieno┌2,3-d┐pyrimidin-4-one] | −1 |
| O=c1c2c(-c3ccc(Cl)c(C(F)(F)F)c3)csc2ncn1/N=C/N1CCCC1 [Example 94, (E)-5-(4-chloro-3-(trifluoromethyl)phenyl)-3-((pyrrolidin-1-ylmethylene)amino)thieno[2,3-d]pyrimidin-4(3H)-one] | 18 |
| O=C(Nn1cnc2scc(-c3ccc(Cl)c(C(F)(F)F)c3)c2c1=O)C1CCCC1 [Example 95, N-(5-(4-chloro-3-(trifluoromethyl)phenyl)-4-oxothieno[2,3-d]pyrimidin-3(4H)-yl)cyclopentanecarboxamide] | 21 |
| O=C(Nn1cnc2scc(-c3ccc(F)c(Cl)c3)c2c1=O)C1CCCC1 [Example 96, N-[5-(3-chloro-4-fluorophenyl)-4-oxo-3H,4H-thieno[2,3-d]pyrimidin-3-yl]cyclopentanecarboxamide] | 27 |
| CCOC(=O)Cn1c(C)nc2scc(-c3ccc(Cl)cc3)c2c1=O [Example 97, Ethyl 2-(5-(4-chlorophenyl)-2-methyl-4-oxothieno[2,3-d]pyrimidin-3(4H)-yl)acetate] | 2 |
| Cc1nc2scc(-c3ccc(Cl)cc3)c2c(=O)n1CC(=O)N1CCCC1 [Example 98, 5-(4-chlorophenyl)-2-methyl-3-(2-oxo-2-(pyrrolidin-1-yl)ethyl)thieno[2,3-d]pyrimidin-4(3H)-one] | 6 |
| Cc1nc2scc(-c3ccc(Cl)cc3)c2c(=O)n1CC(=O)N1CCCC1C(F)(F)F (stereo not shown) [Example 99, 5-(4-chlorophenyl)-2-methyl-3-{2-oxo-2-[2-(trifluoromethyl)pyrrolidin-1-yl]ethyl}-3H,4H-thieno[2,3-d]pyrimidin-4-one] | 3 |

Next, values leading:

| Response Recovered (%) | SMILES |
| --- | --- |
| 14 | CN(C)/C=N/n1cnc2scc(-c3ccc(Cl)c(C(F)(F)F)c3)c2c1=O [Example 100, (E)-N′-(5-(4-chloro-3-(trifluoromethyl)phenyl)-4-oxothieno[2,3-d]pyrimidin-3(4H)-yl)-N,N-dimethylformimidamide] |
| 6 | O=C(CCn1cnc2scc(-c3ccc(Cl)c(C(F)(F)F)c3)c2c1=O)N1CCCC1 [Example 101, 5-(4-chloro-3-(trifluoromethyl)phenyl)-3-(3-oxo-3-(pyrrolidin-1-yl)propyl)thieno[2,3-d]pyrimidin-4(3H)-one] |
| 2 | O=C(CCn1cnc2scc(-c3ccc(Cl)c(C(F)(F)F)c3)c2c1=O)N1CCC(F)C1 (stereo not shown) [Example 102, 5-[4-chloro-3-(trifluoromethyl)phenyl]-3-[3-(3-fluoropyrrolidin-1-yl)-3-oxopropyl]-3H,4H-thieno[2,3-d]pyrimidin-4-one] |
| −2 | O=C(CCn1cnc2scc(-c3ccc(Cl)c(C(F)(F)F)c3)c2c1=O)N1CCCC1C(F)(F)F (stereo not shown) [Example 103, 5-[4-chloro-3-(trifluoromethyl)phenyl]-3-{3-oxo-3-[2-(trifluoromethyl)pyrrolidin-1-yl]propyl}-3H,4H-thieno[2,3-d]pyrimidin-4-one] |
| −2 | O=C(Cn1c(C(F)(F)F)nc2scc(-c3ccc(Cl)cc3)c2c1=O)N1CCCC1C(F)(F)F (stereo not shown) [Example 104, 5-(4-chlorophenyl)-3-(2-oxo-2-(2-(trifluoromethyl)pyrrolidin-1-yl)ethyl)-2-(trifluoromethyl)thieno[2,3-d]pyrimidin-4(3H)-one] |
| −1 | O=C(Cn1c(C(F)(F)F)nc2scc(-c3ccc(Cl)cc3)c2c1=O)N1CCCC1 [Example 105, 5-(4-chlorophenyl)-3-[2-oxo-2-(pyrrolidin-1-yl)ethyl]-2-(trifluoromethyl)-3H,4H-thieno[2,3-d]pyrimidin-4-one] |
